Values joined by “and” are separate entries in the source; they are usually repeats but may differ in a detail not shown here. Identical values can stand only once.
Assays:
human S1P5 V115A mutant = human S1P5 V115A mutant (Homo sapiens, UniProt Q9H228, V115A); experiment: BRET-based cAMP Gi signaling assay, S1P5 V115A; settings: V115A, Suppl. Fig. 6e
human WT S1P5 receptor = human WT S1P5 receptor (Homo sapiens, UniProt Q9H228); experiment: BRET-based cAMP (EPAC biosensor) Gi signaling assay, WT S1P5; settings: WT, Suppl. Fig. 6e
Sequence of human WT S1P5 receptor (Q9H228 whole entry): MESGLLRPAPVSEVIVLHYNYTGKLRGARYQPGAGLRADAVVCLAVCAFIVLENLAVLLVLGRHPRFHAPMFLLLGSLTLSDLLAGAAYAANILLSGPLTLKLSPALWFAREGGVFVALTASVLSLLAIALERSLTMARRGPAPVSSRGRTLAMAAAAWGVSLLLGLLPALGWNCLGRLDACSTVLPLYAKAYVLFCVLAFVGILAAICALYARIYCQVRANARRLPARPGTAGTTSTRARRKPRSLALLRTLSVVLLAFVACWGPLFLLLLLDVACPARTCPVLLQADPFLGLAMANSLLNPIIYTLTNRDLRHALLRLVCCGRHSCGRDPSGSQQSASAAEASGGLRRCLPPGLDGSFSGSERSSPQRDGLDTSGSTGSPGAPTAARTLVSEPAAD

human S1P5 T79A mutant = human S1P5 T79A mutant (Homo sapiens, UniProt Q9H228, T79A); experiment: BRET-based cAMP Gi signaling assay, S1P5 T79A; settings: T79A, Suppl. Fig. 6c
Sequence of human S1P5 T79A mutant (Q9H228 whole entry T79A): as the sequence (Q9H228 whole entry) above, with T79A counted along it

Sequence of human S1P5 V115A mutant (Q9H228 whole entry V115A): as the sequence (Q9H228 whole entry) above, with V115A counted along it

With `CCCCCCCCCCCCC/C=C/[C@@H](O)[C@@H](N)COP(=O)(O)O` [S1P, sphingosine-1-phosphate] the “BRET signal, raw replicate readings” value (human S1P5 V115A mutant; S1P 12500 nM) was 0.7675, the “BRET signal, raw replicate readings” value (human S1P5 V115A mutant; S1P 25000 nM) was 0.7654 and 0.7708 and 0.7701 and 0.7667 and 0.7652 and 0.763 and 0.7734 and 0.7704 and 0.7743 and the “BRET signal, raw replicate readings” value (human WT S1P5 receptor; S1P 0.685185 nM) was 0.7239 and 0.7229 and 0.7227 and 0.7322 and 0.7297 and 0.7339 and 0.7264 and 0.7321 and 0.7345. The “BRET signal, raw replicate readings” value (human WT S1P5 receptor; S1P 2.05556 nM) was 0.7237 and 0.7264 and 0.7244 and 0.734 and 0.7307 and 0.7332 and 0.7317 and 0.7311 and 0.7362, the “BRET signal, raw replicate readings” value (human WT S1P5 receptor; S1P 6.16667 nM) was 0.7266 and 0.7231 and 0.7269 and 0.7291 and 0.734 and 0.731 and 0.7324 and 0.7315 and 0.7331 and the “BRET signal, raw replicate readings” value (human WT S1P5 receptor; S1P 18.5 nM) was 0.7325 and 0.7286 and 0.7291 and 0.731 and 0.733 and 0.7374 (2×) and 0.7372 and 0.7364. For the same molecule, the “BRET signal, raw replicate readings” value (human WT S1P5 receptor; S1P 55.5 nM) was 0.7419 and 0.743 and 0.7446 and 0.7524 and 0.7535 and 0.7545 and 0.7491 and 0.7497 (2×), the “BRET signal, raw replicate readings” value (human WT S1P5 receptor; S1P 185 nM) was 0.7589 and 0.7571 and 0.7588 and 0.7688 and 0.7682 and 0.766 and 0.76 and 0.7599 and 0.7596 and the “BRET signal, raw replicate readings” value (human WT S1P5 receptor; S1P 781.25 nM) was 0.7647 and 0.7661 and 0.7611 and 0.7735 and 0.7751 and 0.7748 and 0.7643 and 0.7625 and 0.7654. The “BRET signal, raw replicate readings” value (human WT S1P5 receptor; S1P 3125 nM) was 0.7721 and 0.769 and 0.7694 and 0.7819 and 0.7829 and 0.7848 and 0.7658 and 0.7706 and 0.7596, the “BRET signal, raw replicate readings” value (human WT S1P5 receptor; S1P 12500 nM) was 0.7775 and 0.7718 and 0.7733 and 0.7869 and 0.7878 and 0.7756 and 0.7691 and 0.7737 and 0.7605 and the “BRET signal, raw replicate readings” value (human WT S1P5 receptor; S1P 25000 nM) was 0.7765 and 0.7709 and 0.7762 and 0.7879 and 0.7898 and 0.785 and 0.7721 and 0.7678 and 0.7681. The “BRET signal, raw replicates” value (human S1P5 T79A mutant; [S1P] 0.228395 nM) was 0.728 and 0.7297 and 0.7309 and 0.7306 and 0.7448 and 0.7165 and 0.733 and 0.732 and 0.7327, the “BRET signal, raw replicates” value (human S1P5 T79A mutant; [S1P] 0.685185 nM) was 0.7302 and 0.7321 and 0.7319 and 0.7287 and 0.7311 and 0.7348 and 0.7332 and 0.7318 and 0.7294 and the “BRET signal, raw replicates” value (human S1P5 T79A mutant; [S1P] 2.05556 nM) was 0.7333 and 0.7313 and 0.7311 and 0.7385 and 0.7367 and 0.733 and 0.7328 and 0.7316 and 0.7345. For the same molecule, the “BRET signal, raw replicates” value (human S1P5 T79A mutant; [S1P] 6.16667 nM) was 0.7337 and 0.7364 and 0.7232 and 0.7384 and 0.7383 and 0.7348 and 0.7304 and 0.7359 and 0.7321, the “BRET signal, raw replicates” value (human S1P5 T79A mutant; [S1P] 18.5 nM) was 0.7347 (2×) and 0.7375 and 0.7387 and 0.7386 and 0.7311 and 0.7341 and 0.7354 and 0.7312 and the “BRET signal, raw replicates” value (human S1P5 T79A mutant; [S1P] 55.5 nM) was 0.7438 and 0.7423 (2×) and 0.7417 and 0.7457 and 0.7434 and 0.7489 and 0.7415 and 0.7424. The “BRET signal, raw replicates” value (human S1P5 T79A mutant; [S1P] 185 nM) was 0.7491 (2×) and 0.7494 and 0.7531 and 0.7514 and 0.7551 and 0.7506 and 0.752 and 0.7559, the “BRET signal, raw replicates” value (human S1P5 T79A mutant; [S1P] 781.25 nM) was 0.7686 and 0.7529 and 0.774 and 0.7668 (2×) and 0.7667 and 0.7673 and 0.7649 and 0.7637 and the “BRET signal, raw replicates” value (human S1P5 T79A mutant; [S1P] 3125 nM) was 0.7697 and 0.7671 and 0.7674 and 0.7739 and 0.7792 and 0.7768 and 0.7709 (2×) and 0.7684. The “BRET signal, raw replicates” value (human S1P5 T79A mutant; [S1P] 12500 nM) was 0.7734 and 0.7682 and 0.7706 and 0.7812 and 0.7771 and 0.7806 and 0.7763 and 0.7799 and 0.7701.

Source: publication PMC9374744, “Structural basis for receptor selectivity and inverse agonism in S1P5 receptors” (Nature Communications, 2022)
